Laboratory results as given in patent US12503438B2, “Compounds for the treatment of kinase-dependent disorders” (Exelixis, Inc., priority 2019, dated 2025).
pIC50: −log10 of the molar value.

Biological target: KDR (Homo sapiens, UniProt P35968)
Test: KDR autophosphorylation ELISA in HUVEC cells
Type: cell-based
Parameters: endogenous in cells; host or cells: HUVEC (Lonza #C2519A)
Settings: cellular activity, VEGF165-stimulated, phospho-KDR ELISA
Method in brief: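 Compound pretreatment (1 h, 0.3% DMSO) of serum-starved HUVEC preceded a 5 min pulse of 100 ng/mL VEGF165, after which cells were lysed. Phospho-KDR was quantified by ELISA relative to stimulated and unstimulated controls.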

Chain of KDR (P35968 20-1356): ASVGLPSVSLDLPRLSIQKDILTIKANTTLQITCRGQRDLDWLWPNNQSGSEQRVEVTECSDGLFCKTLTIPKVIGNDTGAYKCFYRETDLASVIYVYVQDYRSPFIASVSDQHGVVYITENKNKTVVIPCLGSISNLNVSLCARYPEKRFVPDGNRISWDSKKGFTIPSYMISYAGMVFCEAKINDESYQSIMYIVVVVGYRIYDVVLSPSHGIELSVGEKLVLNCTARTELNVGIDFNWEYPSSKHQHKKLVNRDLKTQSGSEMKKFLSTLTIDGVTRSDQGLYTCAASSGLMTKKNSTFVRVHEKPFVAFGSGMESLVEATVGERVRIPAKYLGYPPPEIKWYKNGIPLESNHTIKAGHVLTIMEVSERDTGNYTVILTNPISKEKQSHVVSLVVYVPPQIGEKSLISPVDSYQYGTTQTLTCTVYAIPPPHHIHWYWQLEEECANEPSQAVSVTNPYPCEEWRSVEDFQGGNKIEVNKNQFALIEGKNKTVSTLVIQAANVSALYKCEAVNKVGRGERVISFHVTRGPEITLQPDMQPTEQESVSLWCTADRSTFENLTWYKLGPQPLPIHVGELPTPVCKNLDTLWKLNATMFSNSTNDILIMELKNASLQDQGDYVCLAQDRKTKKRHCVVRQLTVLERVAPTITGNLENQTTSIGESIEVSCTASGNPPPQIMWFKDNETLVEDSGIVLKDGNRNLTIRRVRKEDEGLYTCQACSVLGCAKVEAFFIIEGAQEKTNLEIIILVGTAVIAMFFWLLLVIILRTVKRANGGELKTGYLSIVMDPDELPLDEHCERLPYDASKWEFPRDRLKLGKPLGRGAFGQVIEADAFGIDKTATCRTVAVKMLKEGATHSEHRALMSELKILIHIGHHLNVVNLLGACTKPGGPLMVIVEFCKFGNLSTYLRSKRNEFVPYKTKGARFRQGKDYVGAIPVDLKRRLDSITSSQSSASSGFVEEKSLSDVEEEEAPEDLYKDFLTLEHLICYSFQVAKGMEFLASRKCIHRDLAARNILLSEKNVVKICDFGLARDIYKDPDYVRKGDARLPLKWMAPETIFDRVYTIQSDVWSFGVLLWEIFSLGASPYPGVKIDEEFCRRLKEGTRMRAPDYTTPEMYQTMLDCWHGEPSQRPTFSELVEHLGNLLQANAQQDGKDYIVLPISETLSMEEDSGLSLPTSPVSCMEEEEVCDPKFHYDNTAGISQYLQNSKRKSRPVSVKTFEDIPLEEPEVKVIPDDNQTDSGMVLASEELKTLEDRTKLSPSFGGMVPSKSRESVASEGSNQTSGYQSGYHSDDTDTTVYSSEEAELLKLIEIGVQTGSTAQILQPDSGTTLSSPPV

pIC50	SMILES
< 6.52	CC1Cc2cc(F)ccc2N1C(=O)C1(C(=O)Nc2ccc(Oc3ccnc4cc(-c5cnn(C)c5)ccc34)cc2)CC1 (stereo not drawn) [Compound 80, 1-(5-Fluoro-2-methyl-2,3-dihydroindole-1-carbonyl)-N-[4-[7-(1-methylpyrazol-4-yl)quinolin-4-yl]oxyphenyl]cyclopropane-1-carboxamide]
< 6.52	Cn1cc(-c2ccc3c(Oc4ccc(NC(=O)C5(C(=O)N6CCc7cc(F)ccc76)CC5)cc4)ccnc3c2)cn1 [Compound 81, 1-(5-Fluoro-2,3-dihydroindole-1-carbonyl)-N-[4-[7-(1-methylpyrazol-4-yl)quinolin-4-yl]oxyphenyl]cyclopropane-1-carboxamide]
< 6.52	Cc1cc(F)cc(C)c1NC(=O)C1(C(=O)Nc2ccc(Oc3ccnc4cc(-c5cnn(C)c5)ccc34)cc2)CC1 [Compound 82, 1-N′-(4-Fluoro-2,6-dimethylphenyl)-1-N-[4-[7-(1-methylpyrazol-4-yl)quinolin-4-yl]oxyphenyl]cyclopropane-1,1-dicarboxamide]
< 6.52	CN(C(=O)C1(C(=O)Nc2ccc(Oc3ccnc4cc(-c5cnn(C)c5)ccc34)cc2)CC1)c1ccc(F)cc1 [Compound 82A, 1-N′-(4-Fluorophenyl)-1-N′-methyl-1-N-[4-[7-(1-methylpyrazol-4-yl)quinolin-4-yl]oxyphenyl]cyclopropane-1,1-dicarboxamide]
6.52 to 7.00	O=C(Nc1ccc(F)cc1)C1(C(=O)Nc2ccc(Oc3ccnc4cc(C5CCNC5)ccc34)cc2)CC1 (stereo not drawn) [Compound 83, 1-N′-(4-Fluorophenyl)-1-N-[4-(7-pyrrolidin-3-ylquinolin-4-yl)oxyphenyl]cyclopropane-1,1-dicarboxamide]
7.00 to 8.00	O=C(Nc1ccc(F)cc1)C1(C(=O)Nc2ccc(Oc3ccnc4cc(-c5ccn(C(F)F)n5)ccc34)cc2)CC1 [Compound 84, 1-N-[4-[7-[1-(Difluoromethyl)pyrazol-3-yl]quinolin-4-yl]oxyphenyl]-1-N′-(4-fluorophenyl)cyclopropane-1,1-dicarboxamide]
7.00 to 8.00	O=C(Nc1ccc(F)cc1)C1(C(=O)Nc2ccc(Oc3ccnc4cc(-c5ccccn5)ccc34)cc2)CC1 [Compound 85, 1-N′-(4-Fluorophenyl)-1-N-[4-(7-pyridin-2-ylquinolin-4-yl)oxyphenyl]cyclopropane-1,1-dicarboxamide]
≥ 8.00	Cn1ncc(-c2ccc3c(Oc4ccc(NC(=O)C5(C(=O)Nc6ccc(F)cc6)CC5)cc4)ccnc3c2)n1 [Compound 86, 1-N′-(4-Fluorophenyl)-1-N-[4-[7-(2-methyltriazol-4-yl)quinolin-4-yl]oxyphenyl]cyclopropane-1,1-dicarboxamide]
≥ 8.00	O=C(Nc1ccc(F)cc1)C1(C(=O)Nc2ccc(Oc3ccnc4cc(-c5ccc[n+]([O-])c5)ccc34)cc2)CC1 [Compound 109, 1-N′-(4-Fluorophenyl)-1-N-[4-[7-(1-oxidopyridin-1-ium-3-yl)quinolin-4-yl]oxyphenyl]cyclopropane-1,1-dicarboxamide]
6.52 to 7.00	Cc1cc2c(Oc3c(F)cc(NC(=O)C4(C(=O)Nc5ccc(F)cc5)CC4)c(F)c3F)ccnc2cc1-c1cnn(C)c1 [Compound 110, 1-N-(4-Fluorophenyl)-1-N′-[2,3,5-trifluoro-4-[6-methyl-7-(1-methylpyrazol-4-yl)quinolin-4-yl]oxyphenyl]cyclopropane-1,1-dicarboxamide]
7.00 to 8.00	CN1CCN(c2cc(-c3ccc4c(Oc5ccc(NC(=O)C6(C(=O)Nc7ccc(F)cc7)CC6)cc5)ccnc4c3)ccn2)CC1 [Compound 111, 1-N′-(4-Fluorophenyl)-1-N-[4-[7-[2-(4-methylpiperazin-1-yl)pyridin-4-yl]quinolin-4-yl]oxyphenyl]cyclopropane-1,1-dicarboxamide]
< 6.52	Cc1cc2c(Oc3cc(Cl)c(NC(=O)C4(C(=O)Nc5ccc(F)cc5)CC4)cc3F)ccnc2cc1-c1cnn(C)c1 [Compound 112, 1-N′-[2-Chloro-5-fluoro-4-[6-methyl-7-(1-methylpyrazol-4-yl)quinolin-4-yl]oxyphenyl]-1-N-(4-fluorophenyl)cyclopropane-1,1-dicarboxamide]
